According to article PMC4486710 (Parasites & Vectors, 2015):

T1: TcCAT1.1 (Trypanosoma cruzi, UniProt A0A0H4FPU8)
T1 construct: gene C3747_66g20; full-length ORF, untagged, pYES2, expressed in S. cerevisiae HSC100-3C (can1 gap1 lyp1); 10 predicted transmembrane helices
T1 sequence (A0A0H4FPU8 1-448): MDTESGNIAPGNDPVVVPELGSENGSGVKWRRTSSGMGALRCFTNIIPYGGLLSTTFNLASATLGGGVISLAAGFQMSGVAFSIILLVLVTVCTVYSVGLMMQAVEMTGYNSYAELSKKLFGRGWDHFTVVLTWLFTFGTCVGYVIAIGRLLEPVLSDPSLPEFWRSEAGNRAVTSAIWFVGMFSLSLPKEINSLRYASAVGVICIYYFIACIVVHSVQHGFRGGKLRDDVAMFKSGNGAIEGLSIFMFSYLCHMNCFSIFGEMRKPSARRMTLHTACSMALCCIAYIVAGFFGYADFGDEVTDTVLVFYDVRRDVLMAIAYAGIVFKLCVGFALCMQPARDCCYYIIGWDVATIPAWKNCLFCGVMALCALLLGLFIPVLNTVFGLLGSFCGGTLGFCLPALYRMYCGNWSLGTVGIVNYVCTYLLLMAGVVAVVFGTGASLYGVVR

B1: TcCAT1.1 (Trypanosoma cruzi) (protein)
chain: T1 sequence (A0A0H4FPU8 1-448)
notes: full-length ORF, untagged, pYES2, expressed in S. cerevisiae HSC100-3C (can1 gap1 lyp1); 10 predicted transmembrane helices

The molecules below were run on N=C(N)NCCC[C@H](N)C(=O)O (assay: radiolabelled uptake in transformed S. cerevisiae, Michaelis-Menten fit). Details: labelled compound; glucose-repressed background subtracted; three trials.
Type: cell-based, Trypanosoma cruzi
Text: radiolabelled uptake in transformed S. cerevisiae, Michaelis-Menten fit on TcCAT1.1

Row | Molecule | Km [µM]
1 | B1 | 85 ± 40

What follows are molecules tested against T1, TcCAT1.1 (assay: competition of [3H]-arginine uptake in transformed S. cerevisiae). Details: 1000 µM; 10 µM [3H]-arginine, 1 mM competitor, 30 min, room temperature.
Type: cell-based
Text: competition of [3H]-arginine uptake in transformed S. cerevisiae on TcCAT1.1

Row | Molecule | [^3H]-Arginine uptake(%)
2 | N=C(N)NCCCC[C@H](N)C(=O)O [homoarginine] | 65.5 ± 12.1
3 | CC(C)C[C@H](N)C(=O)O [leucine] | 67.7 ± 16.2
4 | N[C@@H](Cc1cnc[nH]1)C(=O)O [histidine] | 67.3 ± 8.8
5 | NC(=O)CC[C@H](N)C(=O)O [glutamine] | 74.2 ± 25.6
6 | NCCCNCCCCNCCCN [spermine] | 65.0 ± 6.6
7 | C[C@H](N)C(=O)O [alanine] | 67.9 ± 2.6
8 | NCCCC[C@H](N)C(=O)O [lysine] | 78.0 ± 26.7
9 | NC(=O)C[C@H](N)C(=O)O [asparagine] | 78.0 ± 6.1
10 | O=C(O)[C@@H]1CCCN1 [proline] | 72.3 ± 12.1

Same assay, conditions: 1000 µM; 10 µM [3H]-arginine, 1 mM competitor, 30 min, room temperature; possible substrate

Row | Molecule | [^3H]-Arginine uptake(%)
11 | N=C(N)NOCC[C@H](N)C(=O)O [canavanine] | 28.9 ± 6.3
